Several values for one entry are separate records, joined by “and”; a condition that tells them apart may be missing. Identical values can stand only once.
Legend:
[1] = system: bone marrow derived mast cells (BMMC); test: BMMC high cell density IgE activation: IL-6; type: cell-based, mouse; conditions: high cell density; read-out: BMMC anti-IgE IL-6
Experimental: (§1) After sensitizing, cells are counted, pelleted (1000 rpm, 5-10 minutes), and resuspended at 1-3×10^6 cells/ml in MT buffer. Add 100 ul of cell suspension to each well and 100 ul of compound dilutions. The final vehicle concentration is 0.5% DMSO. Incubate at 37° C. (5% CO2) for 1 hour. After 1 hour of compound treatment, stimulate cells with 6× stimulus (60 ng/ml DNP-BSA). Mix wells with the cells and allow plates to incubate at 37° C. (5% CO2) for one hour. After 1 hour incubation, pellet cells (10 minutes, 1000 RPM) and collect 200 ul per well of the supernatant, being careful not to disturb pellet, and transfer to a clean tube or 96-well plate. Place the supernatant plate on ice. During the 4-5 hour step (see next) perform the hexosiminidase assay. Resuspend cell pellet in 240 ul WEI-conditioned media containing 0.5% DMSO and corresponding concentration of compound. Incubate BMMC cells for 4-5 hours at 37° C. (5% CO2). After incubation, pellet cells (1000 RPM, 10 minutes) and collect 225 ul per well and place in −80° C. until ready to perform ELISAS. ELISAS are performed on appropriately diluted samples (determined empirically for each donor cell population so that the sample measurement falls within the standard curve) following the supplier's instructions.

[2] = system: bone marrow derived mast cells (BMMC); test: BMMC high cell density IgE activation: hexosaminidase; type: cell-based, mouse; conditions: high cell density; read-out: BMMC anti-IgE Hexos.
Syk kinase = target: T1, Syk kinase (Homo sapiens, UniProt P43405); test: Syk kinase biochemical fluorescence polarization assay; conditions: isolated Syk kinase, fluorescence polarization, 4 uM ATP
T1 construct: purchased Upstate, Lake Placid NY

[3] = system: differentiated human macrophages; test: Macrophage activation, IgG stimulation: TNF; type: cell-based; conditions: stimulus (IgG or LPS) not given; read-out: Monocytes/Macrophage TNF IC50
Experimental: Purity was assessed by measuring the percentage of CD14+ cells by flow cytometry.
A negative control consisting of the F(ab′)2 fragment was also coated to assess background stimulation. Unbound antibody was washed away 2× with 200 ul PBS. […] The cells were incubated for 16 hr in a 37° C. incubator, and supernatants were collected for Luminex analysis for IL-6 and TNFα, essentially as described for the primary T-cells, above.

[4] = system: cultured human mast cells (CHMC); test: CHMC low cell density IgE activation: tryptase assay; type: cell-based; conditions: low cell density; read-out: CHMC anti-IgE Tryptase
Procedure, shortened: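 Read-out: tryptase released into supernatant, measured by substrate turnover over 30 min at RT. Low-density CHMC (1000-1500 cells/well, per donor degranulation activity) in MT buffer, 1 hr at 37° C, then anti-IgE challenge 30 min at 37° C.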

[5] = system: Human Jurkat T-cells (clone N); test: Jurkat T-cell activation (anti-TCR, CD69 upregulation); type: cell-based
Procedure, shortened: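 Readout is CD69 upregulation by flow cytometry (anti-CD69-APC, 20 min at 4 °C) after 20 h anti-TCR (C305, 500 ng/ml) stimulation at 37 °C.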

[6] = system: cultured human mast cells (CHMC); test: CHMC low cell density ionomycin activation: tryptase assay; type: cell-based; conditions: low cell density; read-out: CHMC Ionomycin Tryptase
[7] = system: differentiated human macrophages; test: Macrophage activation, IgG stimulation: IL-6; type: cell-based; conditions: stimulus (IgG or LPS) not given; read-out: Monocytes/Macrophage IL-6 IC50
Experimental: CD 14+ monocytes were purified from PBMC (Allcells # PB002) using the Monocyte Isolation kit (Miltenyi biotec #130-045-501) as per the manufacturer's instructions. Purity was assessed by measuring the percentage of CD14+ cells by flow cytometry. Typically >90% purity is achieved. The purified CD14+ cells are then plated out (6×10^6 cells/150 cm TC dish in 15 mls media) in Macrophage-SFM (Gibco #12065-074) with 100 ng/ml of M-CSF (Pepro Tech #300-25) and allowed to differentiate for five days. At the end of that period, cell morphology and cell surface markers (CD14, HLA-DR, B7.1, B7.2, CD64, CD32, and CD16) reflected the presence of mature differentiated macrophage.
A negative control consisting of the F(ab′)2 fragment was also coated to assess background stimulation. Unbound antibody was washed away 2× with 200 ul PBS. 20 ul of 5× compound was added to each well, followed by the addition 15 k cells of differentiated macrophage in 80 uL that had been scraped off of the plates. The cells were incubated for 16 hr in a 37° C. incubator, and supernatants were collected for Luminex analysis for IL-6 and TNFα, essentially as described for the primary T-cells, above.
Varied concentrations of compound were compared to solvent only to determine the IC50 of each compound for each cytokine Representative IC50 s for 2,4-pyrimidinediamine compounds of the invention are shown in Table 11.

[8] = system: bone marrow derived mast cells (BMMC); test: BMMC high cell density IgE activation: TNFalpha; type: cell-based, mouse; conditions: high cell density; read-out: BMMC anti-IgE TNF-alpha
Experimental: as §1

[9] = Mouse Reverse Passive Arthus reaction (RPA reaction); type: in vivo, C57BL/6 mice; conditions: oral, 200 mg/kg
Procedure, shortened: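 C57BL/6 mice dosed with compound before challenge, pretreatment time set by each compound's PK; rabbit anti-OVA IgG (50 μg/mouse) given intradermally, then ovalbumin 20 mg/kg i.v. with 1% Evans blue. Dorsal skin edema and hemorrhage read by dye extravasation at 4 h; purified polyclonal rabbit IgG as control.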

Primary human B-cells = test: Primary B-cell activation (α-IgM, CD69 upregulation); type: cell-based; conditions: read-out: 1° B-Cell CD69 IC50
Experimental: Primary human B-cells were isolated from buffy coat, the white cell layer that forms between the red cells and the […] when anti-coagulated blood is centrifuged, or from fresh blood using CD19-Dynal® beads and a FACS. Buffy coat was obtained from the Stanford Medical School Blood Centre, prepared on the same day by the blood bank, stored and transported cold (with ice). The buffy coat (approx 35 mL) was placed in a 500 mL conical sterile centrifuge pot and cooled on ice, then diluted with cold PBS containing 0.2% BSA (Sigma: A7638) and sodium citrate (0.1%, Sigma: S-5570) (P—B—C) to a total volume of 200 mL and mixed gently. Fresh blood was collected from donors in 10 mL vacutainers containing heparin (1 vacutainer collects approximately 8.5 mL blood). The blood was cooled on ice, transferred into 50 mL falcon tubes (20 mL/tube) or a 500 mL conical sterile centrifuge pot, and diluted with an equal volume P—B—C.
25 mL diluted blood or buffy coat was layered onto 15 mL cold ficoll and placed back on ice. The ficoll layered blood was centrifuged (Beckman GS-6R) for 45 minutes at 2000 rpm, 4° C. to separate the Peripheral Blood Mononuclear Cells (PBMC) from the Red Blood Cells (RBC) and granulocytes. The top aqueous layer was then aspirated until 1 inch above the PBMC layer. The PBMCs were transferred from every 2 ficoll tubes into one clean 50 mL falcon tube (=approx 10 mL/tube). The transferred PBMCs were diluted 5× with icecold PBS with 0.2% BSA (P—B) and centrifuged for 20 min at 1400 rpm and 4° C. The supernatant (this may be cloudy) was then aspirated and the PBMCs resuspended into 25 mL P—B and the cells counted (using a 1:5 dilution) and kept on ice.
The cells were then positively selected using anti-CD 19 antibody coupled to magnetic beads (Dynal®) as per manufacturer's instructions. The approximate required amount of CD19-Dynal® beads (CD19-coated dyna beads M-450 (pabB), Dynal®) was calculated by estimating the number of B-cells as 5% of PBMCs counted and adding approximately10 beads per cell from the bead stock (4×10^8 beads/mL). The CD19-Dynal® beads were washed 2× in P—B in a 5 mL tube using the Dynal® magnet, then added into the suspended PBMCs. This mixture was then passed through the Dynal® magnet and washed several times to separate the bead-bound cells.
After separation, the beads and antibody were removed using Dynal® CD19-DETACHaBEAD® for 45 min at 30° C. Yield is typically 2×10^7 B-cells per buffy coat. B-cells were washed and resuspended as 1E6 cells/mL in RPMI1640+10% FBS+Penicillin/[…]+1 ng/mL IFNα8. Cells were rested overnight at 37° C. and 5% CO2.
The following day, cells were washed and resuspended in RPMI+2.5% FBS to 1×10^6 cells/mL. Cells were then aliquoted into a V-bottom 96-well plate (Corning) at 65 uL cells per well. By robot, 65 uL of a 2× compound was added to the cells with final concentration of DMSO at 0.2%, and incubated for 1 hr at 37° C. Cells were then stimulated with 20 uL 7.5× α-IgM from Jackson laboratories (final 5 ug/mL) for 24 hrs. At day 3, the cells were spun down and stained for CD69 and analyzed by FACS gated on the live cells (by light scatter).
Varied concentrations of compound were compared to solvent only to determine the inhibition of B-cell activation IC50 of each compound.

COc1ccc(Nc2ncc(F)c(Nc3ccc4c(c3)NC(=O)[C@@H](C)O4)n2)cc1Cl [Compound R909322] showed an IC50 [1] of 100 nM, an IC50 [2] of 240 nM and an IC50 (Syk kinase) of 141 nM. For the same molecule, the IC50 [3] was 1260 nM, the IC50 [4] was 225 nM and the IC50 [5] was 3030 nM. The IC50 [6] was > 10000 nM, the IC50 [7] was 839 nM and the IC50 [8] was 140 nM.
Work on Cc1cccc(C)c1Nc1ncc(F)c(Nc2ccc3c(c2)NC(=O)C(C)(C)O3)n1 [Compound R927069] yielded an IC50 [1] of 1090 nM, an IC50 [2] of 1350 nM and an IC50 (Syk kinase) of 111 nM. It also gave an IC50 [3] of 8500 nM, an IC50 [4] of 76 nM and an IC50 [5] of 930 nM. It also gave an IC50 [6] of 13000 nM, an IC50 [7] of 5650 nM and an IC50 [8] of 930 nM.
In the case of CNC(=O)COc1cccc(Nc2ncc(F)c(Nc3ccc(OC)c(Cl)c3)n2)c1 [Compound R926891], the “inhibition of edema formation” value ([9]; 60 minutes prior to challenge) is reported as 54.9%, the “% inhibition to vehicle control Edema Size ± SEM” value ([9]; pretreatment time 0.5 hrs) is reported as 44.8 ± 3.0% and the “% inhibition to vehicle control Edema Size ± SEM” value ([9]; pretreatment time 1 hrs) is reported as 46.2 ± 4.1% and 54.9%. The “% inhibition to vehicle control Edema Size ± SEM” value ([9]; pretreatment time 1.5 hrs) was 28.1 ± 10.6%, the IC50 (Primary human B-cells) was 803 nM and the IC50 [3] was 1140 nM. It also gave an IC50 [5] of 1550 nM and an IC50 [7] of 942 nM.
Work on COc1ccc(Nc2nc(Nc3ccc4cc[nH]c4c3)ncc2F)cc1Cl [Compound R926976] yielded an IC50 [1] of 250 nM, an IC50 [2] of 590 nM and an IC50 (Syk kinase) of 421 nM. For the same molecule, the IC50 [3] was 4370 nM, the IC50 [4] was 305 nM and the IC50 [6] was 8300 nM. For the same molecule, the IC50 [7] was 7620 nM and the IC50 [8] was 110 nM.
For Cn1ncc2ccc(Nc3ncc(F)c(Nc4ccc5c(c4)NC(=O)C(C)(C)O5)n3)cc21 [Compound R940366], the IC50 [1] was 10 nM, the IC50 [2] was 30 nM and the IC50 (Syk kinase) was 3 nM. It also gave an IC50 [3] of 86 nM, an IC50 [4] of 37 nM and an IC50 [5] of 86 nM. It also gave an IC50 [6] of 40000 nM, an IC50 [7] of 97 nM and an IC50 [8] of 5 nM.

From patent US8158621B2, “Methods of treating or preventing autoimmune diseases with 2,4-pyrimidinediamine compounds” (Rigel Pharmaceuticals, Inc., priority 2002, dated 2012)
